Consider 14 molecules from ChEMBL document CHEMBL2424554, “Synthesis of new indazole derivatives as potential antioxidant agents” (Med Chem Res, 2013).

Common to all, as to format: functional
Assay [1] is described as follows: Antioxidant activity assessed as effective concentration for potassium ferric cyanide ion reducing power equivalent of 0.5 absorbance ellagic acid at 100 to 1000 ug/ml after 20 mins by FRAP assay.
Assay [2] in a line: Antioxidant activity assessed as ascorbic acid equivalent antioxidant capacity per mg sample after 90 mins by phosphomolybdenum method.
Assay [3] can be described thus: Antioxidant activity assessed as DPPH scavenging activity after 20 mins by spectrophotometry. On the set-up: concentration or dose not given beside the values.

For the molecule `O=c1c2c([nH]n1-c1ccc([N+](=O)[O-])cc1[N+](=O)[O-])C=C(c1ccc(F)cc1)CC2c1ccc(Cl)cc1` (stereo not drawn), the values for the Activity in assay [1], in assay [2] and in assay [3] were 0.75 mg/mL, 7.83 µM and 19.6%, respectively.

In the case of `N[C@@H](CCC(=O)N[C@@H](CS)C(=O)NCC(=O)O)C(=O)O`, the Activity in assay [3] worked out at 92.1%.

With `O=c1[nH][nH]c2c1C(c1ccccc1)CC(c1ccc(F)cc1)=C2` (stereo not drawn), the Activity in assay [1] is 0.63 mg/mL; in assay [2], 4.75 µM; in assay [3], 19.8%.

Regarding `O=c1c2c([nH]n1-c1ccc([N+](=O)[O-])cc1[N+](=O)[O-])C=C(c1ccc(F)cc1)CC2c1ccccc1` (stereo not drawn), the values for the Activity in assay [1], in assay [2] and in assay [3] were 3.26 mg/mL, 16.2 µM and 4.21%, respectively.

Regarding `O=c1[nH][nH]c2c1C(c1ccc(Cl)cc1)CC(c1ccc(F)cc1)=C2` (stereo not drawn), the Activity was determined as 1.2 mg/mL in assay [1], 8.4 µM in assay [2] and 17.9% in assay [3].

On to `O=c1c2c([nH]n1-c1ccc([N+](=O)[O-])cc1[N+](=O)[O-])C=C(c1ccc(F)cc1)CC2c1ccc(Br)cc1` (stereo not drawn), for which the Activity in assay [1] was determined as 0.76 mg/mL; in assay [2], 4.69 µM; in assay [3], 2.34%.

Consider `O=c1c2c([nH]n1-c1ccccc1)C=C(c1ccc(F)cc1)CC2c1ccc(Cl)cc1` (stereo not drawn), for which the Activity in assay [1] was 1.49 mg/mL; in assay [2], 2.59 µM; in assay [3], 94%.

Turning to `O=c1[nH][nH]c2c1C(c1ccc(Br)cc1)CC(c1ccc(F)cc1)=C2` (stereo not drawn), the values for the Activity in assay [1], in assay [2] and in assay [3] were 1.14 mg/mL, 1.17 µM and 16.2%, respectively.

`O=c1c2c([nH]n1-c1ccccc1)C=C(c1ccc(F)cc1)CC2c1ccc(Br)cc1` (stereo not drawn): the Activity came out at 0.802 mg/mL in assay [1], 1.97 µM in assay [2] and 96.8% in assay [3].

On to `O=c1c2c([nH]n1-c1ccc([N+](=O)[O-])cc1)C=C(c1ccc(F)cc1)CC2c1ccccc1` (stereo not drawn), for which the figures for the Activity in assay [1], in assay [2] and in assay [3] were 0.47 mg/mL, 0.69 µM and 89.6%, respectively.

Take `O=c1c2c([nH]n1-c1ccc([N+](=O)[O-])cc1)C=C(c1ccc(F)cc1)CC2c1ccc(Br)cc1` (stereo not drawn): the Activity turned out to be 0.64 mg/mL in assay [1], 0.58 µM in assay [2] and 85.3% in assay [3].

Turning to `O=c1c2c([nH]n1-c1ccc([N+](=O)[O-])cc1)C=C(c1ccc(F)cc1)CC2c1ccc(Cl)cc1` (stereo not drawn), the Activity in assay [1] is 0.95 mg/mL; in assay [2] it was 6.22 µM; in assay [3], 84.4%.

As to `O=c1c2c([nH]n1-c1ccccc1)C=C(c1ccc(F)cc1)CC2c1ccccc1` (stereo not drawn), the Activity came out at 1.95 mg/mL in assay [1], 3.95 µM in assay [2] and 90.2% in assay [3].

For `O=c1oc2c(O)c(O)cc3c(=O)oc4c(O)c(O)cc1c4c23`, in assay [1], the Activity was 0.105 mg/mL.
